Experimental data from patent publication EP4345091A1, “BENZOIC ACID DERIVATIVES, METHODS AND USES THEREOF” (priority 2022, dated 2024).
≈ marks a conversion by molar mass, not a printed value. Where two headings read alike, the source gives them in different places.

Columns and labels:
[1] = test system: Mycobacterium tuberculosis H37Rv; test: MIC and MBC by broth microdilution against M. tuberculosis H37Rv; format: cell-based, Mycobacterium tuberculosis H37Rv (ATCC 27294); settings: Mycobacterium tuberculosis, H37RV
[2] = Cytotoxicity assay in THP-1 cells; format: cell-based, human; settings: human, THP-1 monocytic cells, THP-1 cells, read-out: LC50 (the source's name)
From the text: (§1) Cytotoxicity results were obtained through lethal concentration for 50% of the cell population, LC50. Table 6. Results obtained from cytotoxicity assays for the esters, represented by LD50 in µg/mL and comparison with MIC values, in µg/mL with toxicity/activity (T/A) index.
(§2) The T/A index quantitatively is the ratio between the lethal concentration (LC50) given by the minimum inhibitory concentration (MIC).

[3] = test system: human monocytic cell line THP-1 (ATCC56 TIB202); test: Cytotoxicity assay in THP-1 cells; format: cell-based; settings: toxicity/activity index: ratio LC50 (THP-1) / MIC (M. tuberculosis H37Rv)
From the text: as §1, §2

[4] = Chemical stability in phosphate buffer pH 7.4
Method: Chemical hydrolysis was evaluated in phosphate buffer at physiological pH (7.4) to determine its influence in enzymatic studies.
1176 µL pH 7.4 phosphate buffer or pH 5.9 phosphate buffer, 18 µL ACN and 6 µL of a 10-1 M stock solution of the prodrug in ACN were mixed in a 2mL vial. The solution was incubated at 37 °C and 50 µL aliquots were removed, mixed with 450 µL of ACN: H2O 1:1. The solution was analysed by HPLC, the remaining substrate and the correspondent acid were both measured.
The eluant was a mixture of acetonitrile (60%/70%) and aqueous phosphate buffer with 5% of KH2PO4/H3PO4 0.025M (40%/30%). The flow rate was always 1 mL/1 min and wavelength was set at 230 nm. All quantifications were evaluated using calibration curves from stock solutions.
The initial substrate concentration was 5 x 10^-4 M in all stability assays. All incubations were carried out at pH 7.4 and 37 °C under agitation using the phosphate buffer described above as diluting agent. […] Acetonitrile (2%) was used in all studies to ensure adequate solubilization of the substrates.

[5] = Stability in human plasma (enzymatic hydrolysis)
Method: The studies of stability in human plasma were performed in human plasma diluted to 80% with phosphate buffer pH 7.4 of total concentration 0.05 M and ionic strength 0.15 M at 37°C. […] Study of enzymatic hydrolysis. […] Initial substrate concentration (ester) - 5×10^-4M with 2% ACN.
Pooled human plasma (960 µL), pH 7.4 phosphate buffered saline (216 µL), 18 µL ACN and 6 µL of a 10-1 M stock solution of the prodrug in ACN were mixed in a 2mL vial. The suspensions were incubated at 37 °C and 50 µL aliquots were removed, mixed with 450 µL of ACN: ZnSO4 1% 1:1 and centrifuged. The supernatant was removed and analysed by HPLC, the remaining substrate and the correspondent acid measured.
Two HPLC systems were used. The buffer and plasma stability studies were performed in an HPLC system with a photodiode detector L-3000 Photo Diode Array Detector, Merck-Hitachi L-6000 pump, Merck-Hitachi D-2500 integrator, and Merck RP-8 column. […] The eluant was a mixture of acetonitrile (60%/70%) and aqueous phosphate buffer with 5% of KH2PO4/H3PO4 0.025M (40%/30%). The flow rate was always 1 mL/1 min and wavelength was set at 230 nm. All quantifications were evaluated using calibration curves from stock solutions.
The initial substrate concentration was 5 x 10^-4 M in all stability assays. All incubations were carried out at pH 7.4 and 37 °C under agitation using the phosphate buffer described above as diluting agent. […] Acetonitrile (2%) was used in all studies to ensure adequate solubilization of the substrates. The benzoates were added from 10 to 1M acetonitrile stock solutions. After incubation, aliquots of 50 µL were taken into vials containing 450 µL of a 1:1 solution of 1% zinc sulfate and acetonitrile, mixed in a vortex and centrifuged for 10 min at 15,000 rpm. The supernatant was then injected into the HPLC and analysed for quantification of benzoic acid and remaining benzoate. All quantifications were performed using calibration curves.

[6] = test system: Mycobacterium smegmatis homogenate; test: Stability in Mycobacterium smegmatis homogenate (enzymatic hydrolysis); settings: Mycobacterium smegmatis homogenate, 37°C
[7] = test system: Mycobacterium Bovis BCG infecting human macrophages THP-1; format: cell-based; settings: compound concentration 2 µg/ml
[8] = M. tuberculosis H37Rv, Table 3, read-out: MBC
[9] = M. tuberculosis H37Rv, Tables 3, 6 and 7, read-out: MIC
[10] = lethal concentration for 50% of the cell population
[11] = n/d (no toxicity at maximum tested dose)

Structure (SMILES)	MBC [1, 8] [µg/mL]	MIC [1, 9] [µg/mL]	CC50 [2, 10] [µg/mL]	T/A [3]	Degradation (%) 24h [4] [%]	Degradation (%) 48h [4] [%]	Degradation (%) 72h [4] [%]	Degradation (%) 168h [4] [%]	Degradation (%) 332h [4] [%]	Degradation (%) 24h [5] [%]	Degradation (%) 48h [5] [%]	Degradation (%) 72h [5] [%]	Degradation (%) 24h [6] [%]	Degradation (%) 48h [6] [%]	CC50 [2, 11] [µg/mL]	also measured
CCCCCCCCCCCCNC(=O)c1cc([N+](=O)[O-])cc(C(F)(F)F)c1 [Compound 8e, N-dodecyl-3-nitro-5-(trifluoromethyl)-benzamide]	0.5 (≈ 1.24 µM)	0.5 (≈ 1.24 µM)	113 (≈ 281 µM)	226	0	0	0	0	0	0	0	0	1	3		
CCCCCCCCCCOC(=O)c1cc([N+](=O)[O-])cc([N+](=O)[O-])c1 [Compound 3d, Decyl 3,5-dinitrobenzoate]										18	32	44	5	9	> 512	MBC [1]: 4 µg/mL (≈ 11.4 µM); MIC [1]: 4 µg/mL (≈ 11.4 µM); CFU x10^4 ([7]; Time 0 days): 9.2 CFUs per mL; CFU x10^4 ([7]; Time 1 day): 12.5 CFUs per mL; CFU x10^4 ([7]; Time 3 days): 12.5 CFUs per mL; CFU x10^4 ([7]; Time 7 days): 8.5 CFUs per mL
CCCCNC(=O)c1ccccc1 [Compound 5a, N-butyl-benzamide]	256 (≈ 1440 µM)	256 (≈ 1440 µM)			0	0	0	0	0	0	0	0	2	3		
CCCCCCCCCCCCCCCCOC(=O)c1cc([N+](=O)[O-])cc([N+](=O)[O-])c1 [Compound 3g, Hexadecyl 3,5-dinitrobenzoate]										1	3	4	2	4	> 512	MBC [1]: > 1020 µg/mL; MIC [1]: > 1020 µg/mL
CCCCCCCCCCOC(=O)c1cc([N+](=O)[O-])cc(C(F)(F)F)c1 [Compound 4d, Decyl 3-nitro-5-(trifluoromethyl)benzoate]	256 (≈ 682 µM)	128 (≈ 341 µM)								26	45	60	5	10	> 512	
CCCCCCCCNC(=O)c1ccc([N+](=O)[O-])cc1 [Compound 6c, N-octyl-4-nitrobenzamide]	256 (≈ 920 µM)	128 (≈ 460 µM)	308 (≈ 1110 µM)	2	0	0	0	0	0	0	0	1	3	5		
CCCCCCCCCCCCNC(=O)c1ccccc1 [Compound 5e, N-dodecyl-benzamide]	> 256	> 256			0	0	0	0	0	0	0	0	0	0		
CCCCCCCCCCCCNC(=O)c1ccc([N+](=O)[O-])cc1 [Compound 6e, N-dodecyl-4-nitrobenzamide]	256 (≈ 765 µM)	256 (≈ 765 µM)			0	0	0	0	0	0	0	1	2	3		
CCCCCCCCNC(=O)c1ccccc1 [Compound 5c, N-octyl-benzamide]	32 (≈ 137 µM)	32 (≈ 137 µM)	188 (≈ 806 µM)	6	0	0	0	0	0	0	0	0	1	2		
